# In US6906205B2, “Spiro and dispiro 1,2,4-trioxolane antimalarials” (Medicines for Malaria Venture MMV, priority 2002, dated 2005):
# Read-outs that look alike come from different tables or passages of the source.
# Assays:
# [1] = system: P. falciparum K1 strain (Thailand resistant to chloroquine); assay: semiautomated microdilution assay, [3H]-hypoxanthine incorporation, K1 strain; type: cell-based, Plasmodium falciparum; conditions: K1 strain, 72 h incubation
# Summary of the method: (§1)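 Logit regression analysis was used to estimate IC50 values. Parasites were intraerythrocytic forms from asynchronous stock cultures, and compounds were tested by semiautomated microdilution.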
# [2] = system: ANKA strain of P. berghei; assay: single dose STI in vivo screen in infected mice; design: species or system Plasmodium berghei
# Summary of the method: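 Groups of 3-5 Moro SPF or NMRI mice infected with the ANKA strain of P. berghei received a single dose of trioxolane on day one post-infection. The compound was given in 3% ethanol and 7% Tween 80 or in SSV (0.5% w/v CMC, 0.5% v/v benzyl alcohol, 0.4% v/v Tween 80, 0.9% w/v sodium chloride in water). Antimalarial activity was scored as percent reduction in parasitemia on day three and as survival time versus untreated controls. Survival to day 30 counted as cure.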
# [3] = system: Schistosoma mansoni adult schistosomes (49-day-old); assay: effect on adult schistosomes (49-day-old) in mice; type: in vivo
# Experimental: Mice were infected with 100 Schistosoma mansoni cercariae […]. Each group was treated per os with OZ compounds at single doses of 200, 400, and 600 mg/kg. […] All groups were killed 4 weeks after treatment and the liver and intestine were removed and separated. The liver and intestine were compressed and alive male and female worms could be seen and counted.
# [4] = system: ANKA strain of Plasmodium berghei; assay: single dose ED50/ED90/ED99 determinations in infected mice; type: in vivo; conditions: single dose po in SSV, mice, percent reduction in parasitemia on day three post-infection
# Summary of the method: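 Mice (Moro SPF or NMRI, n=3 per group) infected with P. berghei ANKA received a single dose on day 1 post-infection, vehicle 0.5% CMC/0.5% benzyl alcohol/0.4% Tween 80/0.9% NaCl in water. Read-out is percent reduction in parasitemia on day 3; ED values by nonlinear fitting.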
# P. falciparum = assay: in vitro potency against P. falciparum (strain not stated); type: cell-based; conditions: Plasmodium falciparum
# neuroblastoma cell line = assay: toxicity in a neuroblastoma cell line; type: cell-based
# [5] = Rane test, single 640 mg/kg doses in mice; type: in vivo
# [6] = system: P. falciparum NF54 strain (sensitive to standard antimalarials); assay: semiautomated microdilution assay, [3H]-hypoxanthine incorporation, NF54 strain; type: cell-based, Plasmodium falciparum
# Summary of the method: as §1
# [7] = system: parasitemia (malaria infection); assay: onset of action and recrudescence experiments; type: in vivo; conditions: single 100 mg/kg po (SSV) on day +3 post-infection; recrudescence = >5% parasitemia; followed up to 60 days; (n/5) = animals
# Experimental: The onset of drug action was determined after a single fixed dose of 100 mg/kg (SSV vehicle) po to groups of five animals on day +3 post-infection (day 0).
# [8] = system: Schistosoma mansoni 21-day-old schistosomules; assay: effect on 21-day-old schistosomules in mice; type: in vivo; conditions: single 200 mg/kg per os, female mice
# Experimental: All groups were killed 4 weeks after treatment and the liver and intestine were removed and separated. The liver and intestine were compressed and alive male and female worms could be seen and counted. The effect of the compounds was evaluated by mean total and female worm burden.
# dosing in rats = type: in vivo; conditions: rat
# Source text: (§2) Artesunate is listed as a reference compound.
# dosing in dogs = type: in vivo; conditions: dog
# Source text: as §2
# [9] = system: Schistosoma mansoni adult schistosomes (49-day-old); assay: effect on adult schistosomes (49-day-old) in mice; type: in vivo; conditions: 1 × 600 mg/kg sc.
# [10] = type: physicochemical
# Source text: It is presumed that thermal decomposition of these trioxolanes was initiated by formation of a 1,5 diradical produced by homolytic cleavage of the peroxide bond of the trioxolane ring.
compound,measurement,setting,value
O=C1CCC2(CC1)OOC1(O2)C2CC3CC(C2)CC1C3 (stereo not drawn) [OZ05],IC50,"[1]; Plasmodium falciparum, read-out: IC50 (ng/ml) K1",0.19 ng/mL
same,Activity (%) po,"[2]; percent reduction in parasitemia day 3 post-infection, single 10 mg/kg po in 3% ethanol and 7% Tween 80, mice",94%
same,Activity (%) sc,"[2]; percent reduction in parasitemia day 3 post-infection, single 10 mg/kg sc in 3% ethanol and 7% Tween 80, mice",99.7%
same,Activity (%) SSVpo,"[2]; percent reduction in parasitemia day 3 post-infection, single po dose in standard suspending vehicle (SSV), mice",74%
same,Survival (days) po,"[2]; single 10 mg/kg po in 3% ethanol and 7% Tween 80, untreated control 5.6 ± 0.3",7.1 days
same,Survival (days) sc,"[2]; single 10 mg/kg sc in 3% ethanol and 7% Tween 80, untreated control 5.6 ± 0.3",8.6 days
same,Survival (days) SSVpo,"[2]; single po dose in SSV, untreated control 5.6 ± 0.3",6.2 days
same,"adult worms at day 49, per os 200 mg/kg, DEAD WORM (%)",[3]; single 200 mg/kg per os,12%
same,"adult worms at day 49, per os 400 mg/kg, DEAD WORM (%)",[3]; single 400 mg/kg per os,32%
same,"adult worms at day 49, per os 600 mg/kg, DEAD WORM (%)",[3]; single 600 mg/kg per os,58%
same,ED50,"[4]; Plasmodium berghei, read-out: ED50",8.7 mg/kg
same,ED90,[4],12 mg/kg
same,ED99,[4],15 mg/kg
same,IC50,P. falciparum,1 to 5 ng/mL
same,toxicity in a neuroblastoma cell line,neuroblastoma cell line,no toxicity
same,toxicity at single 640 mg/kg doses in mice in the Rane test,[5],no toxicity
C1CCC2(CC1)OOC1(O2)C2CC3CC(C2)CC1C3 (stereo not drawn) [OZ03],IC50,"[6]; Plasmodium falciparum, NF54, 72 h, read-out: IC50 (ng/ml) NF54",1.6 ng/mL
same,IC50,P. falciparum,1 to 5 ng/mL
same,toxicity in a neuroblastoma cell line,neuroblastoma cell line,no toxicity
same,toxicity at single 640 mg/kg doses in mice in the Rane test,[5],no toxicity
Cc1ccc(S(=O)(=O)O)cc1.O=C(C[C@H]1CC[C@]2(CC1)OO[C@]1(O2)C2CC3CC(C2)CC1C3)N1CCNCC1 [OZ279],IC50 (ng/ml) K1,[1],0.21 ng/mL
same,IC50 (ng/ml) NF54,"[6]; NF54 strain, 72 h incubation",0.24 ng/mL
same,Survival (days) 3 mg/kg SSV po,[2]; single 3 mg/kg po in SSV,8.4 days
same,Survival (days) 10 mg/kg SSV po,[2]; single 10 mg/kg po in SSV,9.3 days
same,Time of Recrudescence,[7],15.0 days
same,"% reduction of schistosomule growth at day 21 after per os application of 200 mg/kg, FWR (%)",[8],88%
same,"% reduction of schistosomule growth at day 21 after per os application of 200 mg/kg, TWR (%)",[8],86%
same,"% reduction of adult worms growth at day 49 after per os application of 400 mg/kg, TWR (%)",[3]; single 400 mg/kg per os,0%
same,"adult worms at day 49, per os 400 mg/kg, DEAD WORM (%)",[3]; single 400 mg/kg per os,12%
same,"% reduction of adult worms growth at day 49 after per os application of 600 mg/kg, TWR (%)",[3]; single 600 mg/kg per os,33%
same,"adult worms at day 49, per os 600 mg/kg, DEAD WORM (%)",[3]; single 600 mg/kg per os,20%
same,ED50,[4],0.63 mg/kg
same,ED90,[4],1.8 mg/kg
same,ED99,[4],3.9 mg/kg
same,IV t1/2 (10 mg/kg),dosing in rats; IV 10 mg/kg,1.675 h
same,Oral Bioavailability 10 mg/kg,dosing in rats; oral 10 mg/kg,37.2%
same,Oral Bioavailability 25 mg/kg,dosing in rats; oral 25 mg/kg,71.1%
same,Oral t1/2 (25 mg/kg),dosing in rats; oral 25 mg/kg,2.78 h
same,IV t1/2 (10 mg/kg),dosing in dogs; IV 10 mg/kg,2.958 h
same,Oral t1/2 (10 mg/kg),dosing in dogs; oral 10 mg/kg,3.255 h
same,Oral Bioavailability 10 mg/kg,"dosing in dogs; oral 10 mg/kg, OZ 279, OZ 256, OZ 209 values flagged (V)",32.8%
same,Oral Bioavailability 25 mg/kg,"dosing in dogs; oral 25 mg/kg, OZ 279, OZ 256, OZ 209 values flagged (V)",55.7%
same,"% reduction of adult worms growth, 1 × 600 sc., TWR (%)",[9],21%
same,"adult worms, 1 × 600 sc., DEAD WORM (%)",[9],27%
"C[C@@H]1CC[C@H]2[C@@H](C)C(=O)O[C@@H]3O[C@@]4(C)CC[C@@H]1[C@]32OO4 [Artemisinin, artemisinin]","Tm, dec (DSC thermal stability)",[10],181 °C
